# Calls of active or inactive are those of the source.
# Columns and labels:
# Fatty acid synthase [1] = target: T1, Fatty acid synthase (Homo sapiens, UniProt P49327); experiment: FAS thioesterase domain inhibitors, dose response, biochemical, kinetic fluorescence intensity (AID 624326); assay type: functional;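 further: rate of fluorescence rise from hydrolysis of a fluorogenic O-methyl fluorescein ester substrate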
# Fatty acid synthase [2] = target: T1, Fatty acid synthase; experiment: FAS thioesterase domain inhibitors, dose response, biochemical, endpoint fluorescence intensity, uHTS hits (AID 624327); assay type: functional;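 further: fluorescence from hydrolysis of an O-methyl fluorescein acyl ester substrate by the enzyme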
# Beta-galactosidase = Beta-galactosidase (Escherichia coli, UniProt Q8VNN2); experiment: PubChem AID 485352; assay type: functional
# Sequence of Beta-galactosidase (Q8VNN2 whole entry): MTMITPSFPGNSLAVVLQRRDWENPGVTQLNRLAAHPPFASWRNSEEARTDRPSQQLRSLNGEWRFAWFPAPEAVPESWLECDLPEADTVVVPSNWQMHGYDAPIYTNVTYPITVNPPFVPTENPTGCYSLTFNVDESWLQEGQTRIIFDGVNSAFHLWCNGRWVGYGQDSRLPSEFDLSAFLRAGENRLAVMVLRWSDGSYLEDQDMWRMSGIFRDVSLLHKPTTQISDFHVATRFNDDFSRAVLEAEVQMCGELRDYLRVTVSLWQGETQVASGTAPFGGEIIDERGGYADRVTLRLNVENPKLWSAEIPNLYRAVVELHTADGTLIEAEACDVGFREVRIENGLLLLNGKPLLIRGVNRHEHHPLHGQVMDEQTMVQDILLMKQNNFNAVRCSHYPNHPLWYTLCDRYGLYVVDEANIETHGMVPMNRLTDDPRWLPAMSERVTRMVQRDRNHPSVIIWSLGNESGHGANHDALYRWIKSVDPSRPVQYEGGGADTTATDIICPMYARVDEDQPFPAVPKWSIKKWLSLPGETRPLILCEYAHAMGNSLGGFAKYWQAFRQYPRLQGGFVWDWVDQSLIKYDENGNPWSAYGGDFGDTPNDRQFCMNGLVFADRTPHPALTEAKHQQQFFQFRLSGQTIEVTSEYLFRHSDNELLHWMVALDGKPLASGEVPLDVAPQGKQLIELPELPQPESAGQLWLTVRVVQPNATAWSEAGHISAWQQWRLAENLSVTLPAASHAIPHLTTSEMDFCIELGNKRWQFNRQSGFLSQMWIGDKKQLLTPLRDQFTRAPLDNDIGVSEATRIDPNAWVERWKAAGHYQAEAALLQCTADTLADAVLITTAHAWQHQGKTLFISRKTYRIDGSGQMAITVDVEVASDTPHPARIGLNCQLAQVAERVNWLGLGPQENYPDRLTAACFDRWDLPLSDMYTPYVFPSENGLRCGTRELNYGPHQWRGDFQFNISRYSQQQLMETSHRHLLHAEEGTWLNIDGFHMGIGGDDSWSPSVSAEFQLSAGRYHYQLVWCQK
# [3] = target: T2, Type-1 angiotensin II receptor (Homo sapiens, UniProt P30556); experiment: AT1 receptor antagonists, dose response, selectivity assay for APJ receptor antagonist project, cell-based, uHTS hits (AID 463214); assay type: functional;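 further: antagonist potency against angiotensin II stimulated AT1 response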
# T2 sequence (P30556 whole entry): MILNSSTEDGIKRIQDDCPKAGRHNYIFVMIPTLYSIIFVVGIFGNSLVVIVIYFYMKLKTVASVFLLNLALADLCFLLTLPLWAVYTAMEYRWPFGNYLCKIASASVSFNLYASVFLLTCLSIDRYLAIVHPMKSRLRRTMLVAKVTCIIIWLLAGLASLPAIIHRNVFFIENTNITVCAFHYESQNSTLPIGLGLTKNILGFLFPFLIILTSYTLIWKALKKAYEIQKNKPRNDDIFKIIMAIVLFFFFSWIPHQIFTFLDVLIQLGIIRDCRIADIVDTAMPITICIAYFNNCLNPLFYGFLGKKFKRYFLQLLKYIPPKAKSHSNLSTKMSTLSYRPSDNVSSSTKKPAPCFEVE
# [4] = target: T3, Low molecular weight phosphotyrosine protein phosphatase (Homo sapiens, UniProt P24666); assay type: functional; details: read-out: IC50_Mean
# T3 sequence (P24666 whole entry): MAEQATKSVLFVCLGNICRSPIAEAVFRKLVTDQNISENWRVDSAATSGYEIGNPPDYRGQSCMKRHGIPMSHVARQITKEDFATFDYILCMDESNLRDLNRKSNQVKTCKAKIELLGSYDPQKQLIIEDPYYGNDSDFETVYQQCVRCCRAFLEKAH
# [5] = target: T4, Carboxy-terminal domain RNA polymerase II polypeptide A small phosphatase 1 (Homo sapiens, UniProt Q9GZU7); experiment: inhibitors of CTDSP1, concentration-response testing, biochemical assay, absorbance-based, actives from ultra-high-throughput screening (AID 540297); assay type: functional
# T4 sequence (Q9GZU7 whole entry): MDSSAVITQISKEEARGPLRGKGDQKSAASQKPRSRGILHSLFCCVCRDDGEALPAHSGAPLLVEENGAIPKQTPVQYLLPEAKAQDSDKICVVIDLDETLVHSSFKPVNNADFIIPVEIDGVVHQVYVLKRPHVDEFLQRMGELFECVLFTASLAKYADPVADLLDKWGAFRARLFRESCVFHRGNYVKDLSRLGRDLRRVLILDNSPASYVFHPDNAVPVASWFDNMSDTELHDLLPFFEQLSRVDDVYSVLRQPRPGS
# [6] = target: T3, Low molecular weight phosphotyrosine protein phosphatase; assay type: functional; details: read-out: IC50_Mean; remark: listed apart in the source
# [7] = miR-122 activators in hepatoma reporter cells, dose response, cell-based, Huh7 psiCHECK-miR122, Renilla luciferase, cherry-picked (AID 651956); assay type: functional;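 further: huh7 hepatoma cells stably carrying a psiCHECK-2 miR-122 sensor plasmid; renilla luciferase signal reporting endogenous miR-122 activity after 48 h compound exposure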
# [8] = target: T5, Hepatocyte nuclear factor 4-alpha (Homo sapiens, UniProt P41235); assay type: functional, cell-based;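 further: biochemical luminescence-based dose-response counterscreen measuring inhibition of HNF4 dimerization, run alongside a screen for blockers of ABHD5–perilipin-5 interaction; split luciferase complementation of HNF4 fusion proteins in cell lysate measuring dimerization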
# T5 sequence (P41235 whole entry): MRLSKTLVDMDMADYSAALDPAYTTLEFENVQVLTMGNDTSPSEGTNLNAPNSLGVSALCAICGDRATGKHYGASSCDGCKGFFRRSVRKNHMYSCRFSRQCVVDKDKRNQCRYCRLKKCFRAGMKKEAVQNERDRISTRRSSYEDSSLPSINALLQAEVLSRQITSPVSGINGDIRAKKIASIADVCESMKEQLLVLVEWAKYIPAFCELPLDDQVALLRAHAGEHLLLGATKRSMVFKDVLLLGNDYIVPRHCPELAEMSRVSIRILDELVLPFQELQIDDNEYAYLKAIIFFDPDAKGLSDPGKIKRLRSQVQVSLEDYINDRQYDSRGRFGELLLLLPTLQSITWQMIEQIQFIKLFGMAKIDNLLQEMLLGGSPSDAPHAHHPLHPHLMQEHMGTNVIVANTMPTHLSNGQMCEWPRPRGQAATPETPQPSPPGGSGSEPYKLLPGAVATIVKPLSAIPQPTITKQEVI
# Genome polyprotein = Genome polyprotein (dengue virus type 2, UniProt P29990); experiment: Dengue-2 NS5 methyltransferase inhibitors, primary screen, biochemical, confirmation dose response (AID 588689); assay type: functional
# Sequence of Genome polyprotein (P29990 2492-3391 limits assumed): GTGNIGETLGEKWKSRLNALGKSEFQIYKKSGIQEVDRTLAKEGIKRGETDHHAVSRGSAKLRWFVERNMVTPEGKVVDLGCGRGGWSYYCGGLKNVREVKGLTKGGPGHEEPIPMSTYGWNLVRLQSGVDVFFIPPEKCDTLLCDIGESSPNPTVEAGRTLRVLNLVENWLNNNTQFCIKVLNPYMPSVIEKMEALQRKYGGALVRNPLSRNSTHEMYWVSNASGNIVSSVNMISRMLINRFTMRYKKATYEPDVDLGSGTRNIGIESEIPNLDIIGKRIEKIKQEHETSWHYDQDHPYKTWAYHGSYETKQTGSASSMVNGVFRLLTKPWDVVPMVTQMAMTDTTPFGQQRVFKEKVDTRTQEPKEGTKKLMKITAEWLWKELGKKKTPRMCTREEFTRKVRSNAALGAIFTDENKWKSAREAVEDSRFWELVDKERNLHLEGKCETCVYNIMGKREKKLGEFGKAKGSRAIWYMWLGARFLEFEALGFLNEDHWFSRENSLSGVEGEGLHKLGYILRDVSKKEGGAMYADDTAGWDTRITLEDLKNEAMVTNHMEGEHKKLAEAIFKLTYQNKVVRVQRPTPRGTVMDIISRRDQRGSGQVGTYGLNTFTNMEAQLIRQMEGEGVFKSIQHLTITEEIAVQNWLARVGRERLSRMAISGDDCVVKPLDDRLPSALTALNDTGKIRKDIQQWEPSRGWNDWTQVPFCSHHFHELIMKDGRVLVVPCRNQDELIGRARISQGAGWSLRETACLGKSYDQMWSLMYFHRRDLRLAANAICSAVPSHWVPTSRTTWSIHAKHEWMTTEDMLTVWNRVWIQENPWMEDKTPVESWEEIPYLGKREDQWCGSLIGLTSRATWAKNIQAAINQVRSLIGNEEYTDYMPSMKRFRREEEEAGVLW
# [9] = target: T6, DNA repair protein RAD52 homolog (Homo sapiens, UniProt P43351); assay type: functional, biochemical
# T6 sequence (P43351 whole entry): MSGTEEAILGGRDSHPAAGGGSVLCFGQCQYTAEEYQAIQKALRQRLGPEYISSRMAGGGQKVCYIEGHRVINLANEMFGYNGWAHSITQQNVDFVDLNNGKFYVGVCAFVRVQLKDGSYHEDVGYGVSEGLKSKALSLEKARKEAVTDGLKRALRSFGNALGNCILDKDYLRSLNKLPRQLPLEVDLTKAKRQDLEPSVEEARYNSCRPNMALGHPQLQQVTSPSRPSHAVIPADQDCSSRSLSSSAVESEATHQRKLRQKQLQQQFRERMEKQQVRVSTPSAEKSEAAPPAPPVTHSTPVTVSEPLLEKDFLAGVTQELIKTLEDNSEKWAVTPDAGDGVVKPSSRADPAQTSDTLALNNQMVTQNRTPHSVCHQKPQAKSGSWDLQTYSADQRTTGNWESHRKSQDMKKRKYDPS
# [10] = target: T7, Ubiquitin-conjugating enzyme E2 N (Homo sapiens, UniProt P61088); assay type: functional;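 further: Dose-response confirmation in a TR-FRET assay detecting UBC13-driven polyubiquitin chain formation, inhibition measured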
# T7 sequence (P61088 whole entry): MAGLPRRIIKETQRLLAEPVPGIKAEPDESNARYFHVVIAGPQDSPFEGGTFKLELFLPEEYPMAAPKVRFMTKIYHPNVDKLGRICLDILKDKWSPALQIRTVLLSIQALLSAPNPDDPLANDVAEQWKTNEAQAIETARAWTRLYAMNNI
# [11] = target: T8, DNA repair and recombination protein RAD54-like (Homo sapiens, UniProt Q92698); experiment: inhibitors of human RAD54 branch migration, confirmation, biochemical, fluorescence, cherry-picked samples, dose series (AID 651657); assay type: functional
# T8 sequence (Q92698 whole entry): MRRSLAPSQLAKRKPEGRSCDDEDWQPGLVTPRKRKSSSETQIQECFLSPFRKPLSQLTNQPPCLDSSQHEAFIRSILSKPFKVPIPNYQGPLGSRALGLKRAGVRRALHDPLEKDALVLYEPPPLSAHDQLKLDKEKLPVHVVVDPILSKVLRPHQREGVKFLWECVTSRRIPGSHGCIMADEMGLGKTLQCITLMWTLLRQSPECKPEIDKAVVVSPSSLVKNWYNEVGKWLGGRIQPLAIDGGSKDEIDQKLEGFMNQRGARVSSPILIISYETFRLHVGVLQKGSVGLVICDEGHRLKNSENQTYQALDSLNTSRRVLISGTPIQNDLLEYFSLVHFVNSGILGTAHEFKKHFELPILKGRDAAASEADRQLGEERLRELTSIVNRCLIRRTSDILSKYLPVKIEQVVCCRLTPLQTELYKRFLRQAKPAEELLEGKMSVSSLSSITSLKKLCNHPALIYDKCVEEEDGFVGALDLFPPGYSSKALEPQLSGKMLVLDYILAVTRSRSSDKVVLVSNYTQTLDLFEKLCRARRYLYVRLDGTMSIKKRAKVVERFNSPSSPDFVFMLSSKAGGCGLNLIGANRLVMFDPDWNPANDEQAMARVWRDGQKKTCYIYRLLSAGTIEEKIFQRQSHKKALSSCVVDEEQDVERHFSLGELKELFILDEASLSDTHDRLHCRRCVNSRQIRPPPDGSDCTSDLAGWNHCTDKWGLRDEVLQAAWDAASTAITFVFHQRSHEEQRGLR
# Protein RecA = target: T9, Protein RecA (Mycobacterium tuberculosis, UniProt P9WHJ3); experiment: Fluorescence Cell-Free Homogeneous Dose Retest to Identify Inhibitors of RecA-Intein Splicing Activity. [Related pubchem assays (depositor defined):AID2097, AID2223, AID489010, AID492950]; assay type: functional
# T9 sequence (P9WHJ3 whole entry): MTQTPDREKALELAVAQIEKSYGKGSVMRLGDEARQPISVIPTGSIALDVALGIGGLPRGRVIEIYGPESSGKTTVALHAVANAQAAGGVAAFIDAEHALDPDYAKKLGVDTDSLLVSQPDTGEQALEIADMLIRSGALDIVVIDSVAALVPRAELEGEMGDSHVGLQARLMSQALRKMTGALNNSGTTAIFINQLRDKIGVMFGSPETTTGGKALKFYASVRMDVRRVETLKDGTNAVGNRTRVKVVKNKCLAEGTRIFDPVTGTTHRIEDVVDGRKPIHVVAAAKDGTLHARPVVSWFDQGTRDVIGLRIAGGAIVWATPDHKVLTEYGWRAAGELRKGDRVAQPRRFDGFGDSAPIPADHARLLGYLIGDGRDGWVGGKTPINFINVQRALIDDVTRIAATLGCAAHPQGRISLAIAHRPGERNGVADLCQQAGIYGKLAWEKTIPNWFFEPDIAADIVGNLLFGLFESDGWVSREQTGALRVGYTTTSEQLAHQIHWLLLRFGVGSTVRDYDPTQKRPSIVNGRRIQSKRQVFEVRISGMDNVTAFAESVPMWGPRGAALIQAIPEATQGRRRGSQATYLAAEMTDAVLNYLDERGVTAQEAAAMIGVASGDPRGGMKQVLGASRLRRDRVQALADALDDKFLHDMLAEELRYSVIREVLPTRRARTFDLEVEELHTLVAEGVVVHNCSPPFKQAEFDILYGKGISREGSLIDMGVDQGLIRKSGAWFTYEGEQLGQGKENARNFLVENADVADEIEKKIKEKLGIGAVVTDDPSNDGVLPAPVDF
# [12] = Luminescence Cell-Based Dose Retest to Confirm Inhibitors of Cancer Stem Cells. [Related pubchem assays (depositor defined):AID2717, AID2721]; assay type: functional; details: Homo sapiens
# [13] = target: T10, Replicative DNA helicase DnaB (Mycobacterium tuberculosis, UniProt P9WMR3); experiment: DnaB intein splicing inhibitors, dose response, biochemical, cell-free fluorescence (AID 449749); assay type: functional
# T10 sequence (P9WMR3 whole entry): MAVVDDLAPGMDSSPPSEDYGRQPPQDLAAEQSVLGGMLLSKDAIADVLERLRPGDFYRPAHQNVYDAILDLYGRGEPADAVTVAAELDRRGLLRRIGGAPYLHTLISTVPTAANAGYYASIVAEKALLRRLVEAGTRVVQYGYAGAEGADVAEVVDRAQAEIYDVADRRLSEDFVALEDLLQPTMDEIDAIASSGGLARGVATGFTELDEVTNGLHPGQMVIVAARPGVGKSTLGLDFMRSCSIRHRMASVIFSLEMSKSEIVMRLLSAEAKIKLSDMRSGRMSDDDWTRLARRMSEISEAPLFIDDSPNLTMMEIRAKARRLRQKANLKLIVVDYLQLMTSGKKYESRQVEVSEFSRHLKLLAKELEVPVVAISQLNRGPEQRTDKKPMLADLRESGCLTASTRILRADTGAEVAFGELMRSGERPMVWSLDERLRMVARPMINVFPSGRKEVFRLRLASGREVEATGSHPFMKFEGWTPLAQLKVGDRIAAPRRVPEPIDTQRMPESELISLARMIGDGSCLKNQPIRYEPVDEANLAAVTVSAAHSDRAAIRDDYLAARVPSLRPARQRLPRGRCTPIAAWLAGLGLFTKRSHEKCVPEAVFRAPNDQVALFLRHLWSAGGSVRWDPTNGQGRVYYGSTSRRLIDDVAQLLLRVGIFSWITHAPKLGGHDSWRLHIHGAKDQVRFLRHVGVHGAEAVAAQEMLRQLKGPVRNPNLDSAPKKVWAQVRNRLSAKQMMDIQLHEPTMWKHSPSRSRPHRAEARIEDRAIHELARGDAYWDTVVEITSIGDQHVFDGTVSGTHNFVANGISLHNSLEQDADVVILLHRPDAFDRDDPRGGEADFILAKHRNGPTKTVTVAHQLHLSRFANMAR
# Cytochrome P450 2C9 = Cytochrome P450 2C9 (Homo sapiens, UniProt P11712)
# Sequence of Cytochrome P450 2C9 (P11712 whole entry): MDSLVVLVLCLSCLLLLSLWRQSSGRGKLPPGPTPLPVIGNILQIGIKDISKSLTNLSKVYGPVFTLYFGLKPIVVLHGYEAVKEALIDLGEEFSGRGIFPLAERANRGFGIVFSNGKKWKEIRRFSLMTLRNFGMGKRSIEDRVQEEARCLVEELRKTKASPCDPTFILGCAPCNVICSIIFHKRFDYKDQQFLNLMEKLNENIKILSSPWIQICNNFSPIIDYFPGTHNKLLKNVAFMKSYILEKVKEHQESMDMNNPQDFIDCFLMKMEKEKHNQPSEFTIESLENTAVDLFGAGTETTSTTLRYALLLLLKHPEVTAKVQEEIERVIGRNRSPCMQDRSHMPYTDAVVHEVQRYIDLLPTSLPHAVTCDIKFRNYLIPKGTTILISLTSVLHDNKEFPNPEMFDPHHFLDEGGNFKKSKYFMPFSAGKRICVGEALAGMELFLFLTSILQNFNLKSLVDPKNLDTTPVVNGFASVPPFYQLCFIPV
# T1 sequence (P49327 whole entry, the tested form may be a part): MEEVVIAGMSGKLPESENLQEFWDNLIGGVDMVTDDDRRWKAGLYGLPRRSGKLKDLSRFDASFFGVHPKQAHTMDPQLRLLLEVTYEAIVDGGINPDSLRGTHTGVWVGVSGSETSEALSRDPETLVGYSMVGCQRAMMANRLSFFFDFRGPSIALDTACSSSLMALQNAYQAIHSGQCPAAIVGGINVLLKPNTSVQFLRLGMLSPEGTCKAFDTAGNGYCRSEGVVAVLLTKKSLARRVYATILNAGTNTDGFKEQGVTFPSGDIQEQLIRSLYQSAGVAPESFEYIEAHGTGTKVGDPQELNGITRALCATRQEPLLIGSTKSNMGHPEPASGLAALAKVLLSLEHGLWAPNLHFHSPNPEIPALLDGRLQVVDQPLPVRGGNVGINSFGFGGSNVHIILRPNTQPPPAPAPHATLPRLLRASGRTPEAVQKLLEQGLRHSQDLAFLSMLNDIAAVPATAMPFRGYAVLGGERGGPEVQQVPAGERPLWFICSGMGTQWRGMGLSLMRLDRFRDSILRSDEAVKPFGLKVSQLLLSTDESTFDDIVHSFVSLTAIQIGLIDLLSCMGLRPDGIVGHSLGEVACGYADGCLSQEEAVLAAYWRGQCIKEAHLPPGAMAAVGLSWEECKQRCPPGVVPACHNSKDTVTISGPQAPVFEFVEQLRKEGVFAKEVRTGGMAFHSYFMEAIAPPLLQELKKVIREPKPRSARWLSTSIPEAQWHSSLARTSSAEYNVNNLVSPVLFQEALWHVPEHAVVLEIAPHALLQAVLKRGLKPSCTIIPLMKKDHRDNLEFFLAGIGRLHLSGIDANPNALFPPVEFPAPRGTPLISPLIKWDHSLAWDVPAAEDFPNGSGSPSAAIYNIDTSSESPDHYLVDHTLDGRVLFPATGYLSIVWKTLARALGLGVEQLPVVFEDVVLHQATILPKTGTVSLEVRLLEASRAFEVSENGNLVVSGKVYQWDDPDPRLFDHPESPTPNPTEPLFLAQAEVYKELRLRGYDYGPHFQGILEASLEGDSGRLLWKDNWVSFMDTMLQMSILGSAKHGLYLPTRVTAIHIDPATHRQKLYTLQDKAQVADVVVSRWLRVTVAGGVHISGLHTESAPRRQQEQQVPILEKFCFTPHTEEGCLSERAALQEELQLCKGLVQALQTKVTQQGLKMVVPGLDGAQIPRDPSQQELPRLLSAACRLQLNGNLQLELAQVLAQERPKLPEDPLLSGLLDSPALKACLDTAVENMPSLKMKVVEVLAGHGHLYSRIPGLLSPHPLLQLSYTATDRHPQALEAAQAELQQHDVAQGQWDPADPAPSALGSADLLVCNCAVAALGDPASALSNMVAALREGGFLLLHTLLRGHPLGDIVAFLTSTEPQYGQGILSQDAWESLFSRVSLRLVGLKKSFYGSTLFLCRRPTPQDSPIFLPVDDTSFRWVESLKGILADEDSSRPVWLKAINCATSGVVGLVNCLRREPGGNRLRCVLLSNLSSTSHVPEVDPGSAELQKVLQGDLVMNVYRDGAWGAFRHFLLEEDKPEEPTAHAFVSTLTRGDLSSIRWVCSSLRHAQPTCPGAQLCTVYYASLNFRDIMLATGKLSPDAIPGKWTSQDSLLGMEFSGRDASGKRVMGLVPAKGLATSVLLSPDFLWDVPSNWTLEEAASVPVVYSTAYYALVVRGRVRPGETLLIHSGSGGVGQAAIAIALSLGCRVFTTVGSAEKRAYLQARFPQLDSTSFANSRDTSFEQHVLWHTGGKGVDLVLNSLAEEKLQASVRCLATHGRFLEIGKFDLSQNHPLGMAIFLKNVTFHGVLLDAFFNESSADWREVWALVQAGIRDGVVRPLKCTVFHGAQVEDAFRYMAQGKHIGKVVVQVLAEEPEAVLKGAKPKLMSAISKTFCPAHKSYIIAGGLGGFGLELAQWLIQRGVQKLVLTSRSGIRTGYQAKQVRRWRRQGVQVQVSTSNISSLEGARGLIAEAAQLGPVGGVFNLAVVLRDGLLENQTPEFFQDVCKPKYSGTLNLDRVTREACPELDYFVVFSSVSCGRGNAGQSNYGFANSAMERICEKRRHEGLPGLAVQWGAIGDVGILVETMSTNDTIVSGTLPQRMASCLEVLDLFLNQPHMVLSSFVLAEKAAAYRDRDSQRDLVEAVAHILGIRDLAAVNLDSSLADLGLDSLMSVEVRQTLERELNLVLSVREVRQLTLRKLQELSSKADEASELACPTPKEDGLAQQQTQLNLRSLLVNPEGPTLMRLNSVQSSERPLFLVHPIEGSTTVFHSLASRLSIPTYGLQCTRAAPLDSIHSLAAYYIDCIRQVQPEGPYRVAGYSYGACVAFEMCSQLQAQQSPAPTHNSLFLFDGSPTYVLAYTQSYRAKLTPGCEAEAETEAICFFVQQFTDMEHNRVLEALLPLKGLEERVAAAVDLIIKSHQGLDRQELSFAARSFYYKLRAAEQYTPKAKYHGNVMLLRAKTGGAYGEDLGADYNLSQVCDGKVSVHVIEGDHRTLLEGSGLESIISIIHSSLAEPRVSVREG
structure (smiles),measurement,setting,value
CCCN(CC(=O)Nc1ccc(F)c(F)c1F)C(=O)c1cc([N+](=O)[O-])ccc1N1CCOCC1,IC50,Fatty acid synthase [1],10.6 µM (active)
same,IC50,Fatty acid synthase [2],14.9 µM (active)
COc1ccc(/C=C/C(=O)NC(=S)Nc2cc([N+](=O)[O-])ccc2O)cc1OC,EC50,Beta-galactosidase,> 40 µM (inactive)
same,IC50,[3],> 40 µM (not active)
same,IC50,[4],17.8 µM (active)
same,IC50,[5],4.85 µM (active)
same,IC50,[6],> 80 µM (inactive)
O=C(c1ccc(CNc2c(NC3CCCCC3)c(=O)c2=O)cc1)N1CCc2ccccc21,AC50,[7],0.583 µM (active)
O=C1NC(=S)NC(=O)C12C(c1ccccc1)NC(=S)NC2c1ccccc1 (centres undefined),IC50,[8],5.81 µM (active)
same,IC50,Genome polyprotein,69.4 µM (active)
O=C(O)CCCCCNc1nc(-c2ccccc2)nc2ccccc12,IC50,[4],12 µM (active)
same,IC50,[6],26.9 µM (inactive)
COc1ccc(C(C(=O)NC2CCCCC2)n2c(=O)c(-c3ccco3)nc3ccccc32)cc1 (centres undefined),IC50,[8],1.75 µM (active)
CCNC(=O)C[C@H]1CC[C@@H]2[C@@H](COc3ccc(NC(=O)Nc4cccc(Cl)c4)cc3C(=O)N2C)O1,AC50,[7],42 µM (active)
CCN(CC)Cc1cc2[nH]c3c4ccc(Cl)cc4ncc3c2cc1OC,AC50,[9],3.1 µM (active)
same,IC50,[10],> 20 µM (inactive)
same,AC50,[11],14.6 µM (active)
COCC(=O)N(C)C[C@H]1Oc2cc(-c3ccccc3F)ccc2S(=O)(=O)N([C@H](C)CO)C[C@H]1C,AC50,[7],2.56 µM (active)
CCN(CC)CCOc1ccc(/C(=C(\Cl)c2ccccc2)c2ccccc2)cc1.O=C(O)CC(O)(CC(=O)O)C(=O)O [CLOMIPHENE CITRATE],IC50,[8],10.8 µM (inactive)
same,EC50,Protein RecA,12.1 µM (active)
same,AC50,[12],997 nM (active)
same,AC50,[13],3.79 µM (active)
same,IC50,[10],> 20 µM (inactive)
same,AC50,Cytochrome P450 2C9,inconclusive

# Reference: ChEMBL document CHEMBL1201862, “PubChem BioAssay data set” (2004)
